Data on 25 compounds can be found in patent US20110082130A1 (LIGAND PHARMACEUTICALS, INC., priority 2006, published 2011).

The target of the first test is T1, chimeric human H3 receptor (Homo sapiens, UniProt Q9Y5N1).
T1 construct: made in house; host or cells: Sf9 insect cells (baculovirus); P2 membrane preparation
T1 sequence (Q9Y5N1 with tags, fused parts or gaps): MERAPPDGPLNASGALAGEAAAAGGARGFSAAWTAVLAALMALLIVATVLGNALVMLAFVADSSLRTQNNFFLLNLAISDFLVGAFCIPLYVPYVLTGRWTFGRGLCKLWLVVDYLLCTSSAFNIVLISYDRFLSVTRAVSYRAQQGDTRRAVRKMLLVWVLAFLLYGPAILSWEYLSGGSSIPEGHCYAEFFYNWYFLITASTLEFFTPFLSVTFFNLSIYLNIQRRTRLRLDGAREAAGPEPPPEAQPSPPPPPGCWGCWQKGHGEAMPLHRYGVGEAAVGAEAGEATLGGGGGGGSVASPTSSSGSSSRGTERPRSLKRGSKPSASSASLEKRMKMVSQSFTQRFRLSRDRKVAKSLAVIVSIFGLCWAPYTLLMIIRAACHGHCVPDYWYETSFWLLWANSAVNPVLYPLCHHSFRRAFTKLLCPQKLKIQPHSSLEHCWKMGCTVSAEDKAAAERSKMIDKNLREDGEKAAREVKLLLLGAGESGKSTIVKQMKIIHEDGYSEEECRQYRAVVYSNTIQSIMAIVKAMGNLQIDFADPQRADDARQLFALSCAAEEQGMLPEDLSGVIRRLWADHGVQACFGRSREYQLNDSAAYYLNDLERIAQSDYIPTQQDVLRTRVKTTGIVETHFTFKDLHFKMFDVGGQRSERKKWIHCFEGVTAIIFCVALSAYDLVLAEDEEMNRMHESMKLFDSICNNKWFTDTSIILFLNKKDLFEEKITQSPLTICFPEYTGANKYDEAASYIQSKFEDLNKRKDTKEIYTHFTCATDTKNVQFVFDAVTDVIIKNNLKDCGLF
The test is described as follows: Chimeric human H3 receptor GTP binding assay (agonist-stimulated GTP-gamma35S binding, Example 7). The test is classed as biochemical. The note with it: Table II "Ki", symbol *; assay of Example 7. The source says:
This Example illustrates a representative assay for evaluating agonist-stimulated GTP-gamma^35S binding (“GTP binding”) activity. […] This agonist-stimulated GTP binding activity can also be used to detect partial agonism mediated by antagonist compounds. A compound analyzed in this assay is referred to herein as a “test compound.”
Four independent baculoviral stocks (one directing the expression of the chimeric human H3 receptor and three directing the expression of each of the three subunits of a heterotrimeric G-protein) are used to infect a culture of Sf9 cells as described above. P2 membranes are prepared as described above, and agonist-stimulated GTP binding on the P2 membranes is assessed using histamine (Sigma Chemical Co., St. Louis, Mo.) as agonist in order to ascertain that the receptor/G-protein-alpha-beta-gamma combination(s) yield a functional response as measured by GTP binding. P2 membranes are resuspended by Dounce homogenization (tight pestle) in GTP binding assay buffer (50 mM Tris pH 7.4, 120 mM NaCl, 5 mM MgCl2, 2 mM EGTA, 1 mg/ml BSA, 0.2 mg/ml bacitracin, 0.02 mg/ml aprotinin, 0.01 mg/ml saponin, 10 μM GDP) and added to assay tubes at a concentration of 35 μg protein/reaction tube. After adding increasing doses of histamine at concentrations ranging from 10^−12 M to 10^−5 M, reactions are initiated by the addition of […] GTP-gamma^35S (PERKIN ELMER; Boston, Mass.) with a final assay volume of 0.20 ml. In competition experiments, non-radiolabeled test compounds are added to separate reactions at concentrations ranging from 10^−10 M to 10^−6 M along with 1 μM histamine to yield a final volume of 0.20 ml.
Neutral antagonists are antagonists that are substantially free of inherent agonist activity, and include those test compounds that reduce the histamine-stimulated GTP binding activity towards, but not below, baseline levels. In contrast, in the absence of added histamine, inverse agonists reduce the GTP binding activity of the receptor-containing membranes below baseline.
After a 60-min incubation at room temperature, reactions are terminated by vacuum filtration over WHATMAN GF/C filters (pre-soaked in wash buffer, 0.1% BSA) followed by washing with ice-cold wash buffer (50 mM Tris pH 7.4, 120 mM NaCl). The amount of receptor-bound (and thereby membrane-bound) GTP-gamma^35S is determined by measuring the filter-bound radioactivity, preferably by liquid scintillation spectrometry of the washed filters. Non-specific binding is determined in parallel assays including 10 μM unlabeled GTP-gammaS and typically represents less than 5 percent of total binding. Data is expressed as percent above basal (baseline). The results of GTP binding experiments are analyzed using SIGMAPLOT software (SPSS Inc., Chicago, Ill.). IC50 values are calculated by non-linear regression analysis of dose-response curves using Kaleidograph (Synergy Software, Reading, Pa.).
Alternatively the data is analyzed as follows. First, the average bound radioactivity from negative control wells (no agonist) is subtracted from the bound radioactivity detected for each of the other experimental wells. Second, average bound radioactivity is calculated for the positive control wells (agonist wells). Then, percent inhibition for each compound tested is calculated using the equation:
Calculated IC50 values are converted to K1 values by the Cheng-Prusoff correction (Cheng and Prusoff (1973) Biochem. Pharmacol. 22(23):3099-3108). Accordingly, the following equation: Ki=IC50/(1+[L]/EC50) is used, where [L] is the histamine concentration in the GTP binding assay, and EC50 is the concentration of histamine producing a 50% response, as determined by a dose-response analysis using concentrations of histamine ranging from 10^−10 M to 10^−6M. […]
(In general: GTPγS is a poorly hydrolysed GTP analogue; its binding reports G protein activation.)
Broadly, the Ki is the equilibrium dissociation constant of an inhibitor or competing ligand from its target. As to `COc1ccc(-c2ccc3c(c2)CCN(CC(=O)N2CCN(C4CCCC4)CC2)C3)cc1F` [Compound 503, 2-[2-(4-cyclopentylpiperazin-1-yl)-2-oxoethyl]-6-(3-fluoro-4-methoxyphenyl)-1,2,3,4-tetrahydroisoquinoline], the Ki was less than 1000 nM.

In the case of `CCOc1cccc(-c2ccc3c(c2)CCN(CC(=O)N2CCN(C4CCCC4)CC2)C3)c1` [Compound 483, 2-[2-(4-cyclopentylpiperazin-1-yl)-2-oxoethyl]-6-(3-ethoxyphenyl)-1,2,3,4-tetrahydroisoquinoline], the inhibition constant (Ki) is less than 1000 nM.

On to `CCCOc1ccc(-c2ccc3c(c2)CCN(CC(=O)N2CCN(C4CCC4)CC2)C3)cc1` [Compound 544, 2-[2-(4-cyclobutylpiperazin-1-yl)-2-oxoethyl]-6-(4-propoxyphenyl)-1,2,3,4-tetrahydroisoquinoline], for which the inhibition constant (Ki) was less than 1000 nM.

As for `CCOc1ccc(-c2ccc3c(c2)CCN(CC(=O)N2CCN(C4CCCC4)CC2)C3)cc1` [Compound 529, 2-[2-(4-cyclopentylpiperazin-1-yl)-2-oxoethyl]-6-(4-ethoxyphenyl)-1,2,3,4-tetrahydroisoquinoline], the Ki is less than 1000 nM.

Consider `O=C(CN1CCc2cc(-c3cccc4[nH]ccc34)ccc2C1)N1CCN(C2CCC2)CC1` [Compound 639, 2-[2-(4-cyclobutylpiperazin-1-yl)-2-oxoethyl]-6-(1H-indol-4-yl)-1,2,3,4-tetrahydroisoquinoline], for which the Ki is less than 1000 nM.

In the case of `COc1cc(-c2ccc3c(c2)CCN(CC(=O)N2CCN(C4CCCC4)CC2)C3)cc(OC)c1OC` [Compound 517, 2-[2-(4-cyclopentylpiperazin-1-yl)-2-oxoethyl]-6-(3,4,5-trimethoxyphenyl)-1,2,3,4-tetrahydroisoquinoline], the Ki was less than 1000 nM.

The test is the same for the next values; noted with them: Table II; "*" = Ki in assay of Example 7 less than 1 micromolar.
As for `CC(=O)Cc1ccc2c(c1)CCN(CC(=O)N1CCN(C3CCC3)CC1)C2` [Compound 249, 1-{2-[2-(4-cyclobutylpiperazin-1-yl)-2-oxoethyl]-1,2,3,4-tetrahydroisoquinolin-6-yl}acetone], the inhibition constant Ki was less than 1000 nM.

Consider `O=C(CN1CCc2nc(-c3ccncc3)ncc2C1)N1CCN(C2CCC2)CC1` [Compound 137, 6-[2-(4-cyclobutylpiperazin-1-yl)-2-oxoethyl]-2-pyridin-4-yl-5,6,7,8-tetrahydropyrido[4,3-d]pyrimidine], for which the Ki is less than 1000 nM.

Turning to `CC1CCC[C@H]2CN(C(=O)CN3CCc4cc(-n5cccn5)ccc4C3)CCN12` (stereo in doubt) [Compound 152, 6-methyl-2-{[6-(1H-pyrazol-1-yl)-3,4-dihydroisoquinolin-2(1H)-yl]acetyl}octahydro-2H-pyrido[1,2-a]pyrazine], the Ki was less than 1000 nM.

As for `O=C(CN1CCc2nc(-c3ccncc3)ncc2C1)N1CCN(C2CCCC2)CC1` [Compound 138, 6-[2-(4-cyclopentylpiperazin-1-yl)-2-oxoethyl]-2-pyridin-4-yl-5,6,7,8-tetrahydropyrido[4,3-d]pyrimidine], the inhibition constant Ki is less than 1000 nM.

With `CCC1CCC[C@H]2CN(C(=O)CN3CCc4cc(C(C)=O)ccc4C3)CCN12` (stereo in doubt) [Compound 163, 1-{2-[2-(6-ethyloctahydro-2H-pyrido[1,2-a]pyrazin-2-yl)-2-oxoethyl]-1,2,3,4-tetrahydroisoquinolin-6-yl}ethanone], the inhibition constant (Ki) is less than 1000 nM.

Take `O=C(CN1CCc2cc(OCc3ccccc3)ccc2C1)N1CCN(C2CCC2)CC1` [Compound 194, 6-(benzyloxy)-2-[2-(4-cyclobutylpiperazin-1-yl)-2-oxoethyl]-1,2,3,4-tetrahydroisoquinoline]: the inhibition constant Ki is less than 1000 nM.

On to `Cc1ccc(-n2cc3c(n2)CN(CC(=O)N2CCN(C4CCC4)CC2)CC3)nn1` [Compound 264, 6-[2-(4-cyclobutylpiperazin-1-yl)-2-oxoethyl]-2-(6-methylpyridazin-3-yl)-4,5,6,7-tetrahydro-2H-pyrazolo[3,4-c]pyridine], for which the inhibitory constant (Ki) is less than 1000 nM.

`O=C(CN1CCc2nc(-c3cncnc3)sc2C1)N1CCCC1CN1CCCC1` (stereo not shown) [Compound 110, 5-{2-oxo-2-[2-(pyrrolidin-1-ylmethyl)pyrrolidin-1-yl]ethyl}-2-pyrimidin-5-yl-4,5,6,7-tetrahydro[1,3] thiazolo [5,4-c]pyridine]: the Ki is less than 1000 nM.

As to `O=C(CN1CCc2nc(N3CCCCC3)ncc2C1)N1CCN(C2CCC2)CC1` [Compound 155, 6-[2-(4-cyclobutylpiperazin-1-yl)-2-oxoethyl]-2-piperidin-1-yl-5,6,7,8-tetrahydropyrido[4,3-d]pyrimidine], the inhibition constant (Ki) was less than 1000 nM.

For `O=C(CN1CCc2cc(-n3cncn3)ccc2C1)N1CCN(C2CCC2)CC1` [Compound 207, 2-[2-(4-cyclobutylpiperazin-1-yl)-2-oxoethyl]-6-(1H-1,2,4-triazol-1-yl)-1,2,3,4-tetrahydroisoquinoline], the inhibition constant Ki was less than 1000 nM.

Still in this test, the particulars now being: assay of Example 7; "*" in Ki of Table II.
Take `COc1cccc(OC)c1-c1nc2c(s1)CN(CC(=O)N1CCN(C3CCC3)CC1)CC2` [Compound 361, 5-[2-(4-cyclobutylpiperazin-1-yl)-2-oxoethyl]-2-(2,6-dimethoxyphenyl)-4,5,6,7-tetrahydro[1,3]thiazolo [5,4-c]pyridine]: the Ki was less than 1000 nM.

Consider `COc1ccc(-c2ccc3c(c2)CCN(CC(=O)N2CCN(C(C)C)CC2)C3)cn1` [Compound 386, 2-[2-(4-isopropylpiperazin-1-yl)-2-oxoethyl]-6-(6-methoxypyridin-3-yl)-1,2,3,4-tetrahydroisoquinoline], for which the inhibition constant (Ki) was less than 1000 nM.

Regarding `O=C(CN1CCc2nc(-c3ccc(F)c(F)c3)sc2C1)N1CCN(C2CCC2)CC1` [Compound 349, 5-[2-(4-cyclobutylpiperazin-1-yl)-2-oxoethyl]-2-(3,4-difluorophenyl)-4,5,6,7-tetrahydro[1,3]thiazolo [5,4-c]pyridine], the Ki was less than 1000 nM.

`O=C(CN1CCc2nc(-c3ccc(F)cc3)sc2C1)N1CCN(C2CCC2)CC1` [Compound 297, 5-[2-(4-cyclobutylpiperazin-1-yl)-2-oxoethyl]-2-(4-fluorophenyl)-4,5,6,7-tetrahydro[1,3]thiazolo [5,4-c]pyridine]: the inhibition constant (Ki) is less than 1000 nM.

For `O=C(CN1CCc2nc(-c3cc(Cl)cc(Cl)c3)sc2C1)N1CCN(C2CCC2)CC1` [Compound 350, 5-[2-(4-cyclobutylpiperazin-1-yl)-2-oxoethyl]-2-(3,5-dichlorophenyl)-4,5,6,7-tetrahydro[1,3]thiazolo [5,4-c]pyridine], the Ki was less than 1000 nM.

Regarding `O=C(CN1CCc2nc(-c3ccccc3F)sc2C1)N1CCN(C2CCC2)CC1` [Compound 299, 5-[2-(4-cyclobutylpiperazin-1-yl)-2-oxoethyl]-2-(2-fluorophenyl)-4,5,6,7-tetrahydro[1,3]thiazolo [5,4-c]pyridine], the Ki is less than 1000 nM.

Consider `O=C(CN1CCc2nn(-c3ncc(Br)cn3)cc2C1)N1CCN(C2CCC2)CC1` [Compound 287, 2-(5-bromopyrimidin-2-yl)-5-[2-(4-cyclobutylpiperazin-1-yl)-2-oxoethyl]-4,5,6,7-tetrahydro-2H-pyrazolo[4,3-c]pyridine], for which the inhibitory constant (Ki) was less than 1000 nM.

With `CC(C)c1ccc(-c2nc3c(s2)CN(CC(=O)N2CCN(C4CCC4)CC2)CC3)cc1` [Compound 307, 5-[2-(4-cyclobutylpiperazin-1-yl)-2-oxoethyl]-2-(4-isopropylphenyl)-4,5,6,7-tetrahydro[1,3]thiazolo [5,4-c]pyridine], the inhibition constant Ki is less than 1000 nM.

Turning to `COCc1ncc2c(n1)CCN(CC(=O)N1CCN(C3CCC3)CC1)C2` [Compound 286, 6-[2-(4-cyclobutylpiperazin-1-yl)-2-oxoethyl]-2-(methoxymethyl)-5,6,7,8-tetrahydropyrido[4,3-d]pyrimidine], the Ki is less than 1000 nM.
